# According to patent US20100255994A1, “HERBICIDAL MIXTURE” (E.I. DU PONT DE NEMOURS AND COMPANY, priority 2007, published 2010):
# System: Digitaria nuda
# Experiment: Test A: postemergence greenhouse weed control, visual rating
# Assay type: in vivo
# Details: 7 DAT
# Protocol: Plastic pots (10-cm square) were filled to the rim with a sandy loam soil having pH of 6.1, 1.4% organic matter and a cation exchange capacity (CEC) of 5.7 milliequivalents per 100 grams (meq/100 g). The soil was tamped firm to a uniform level of 2.5 cm below the rim of each pot. A measured amount of seeds of Digitaria nuda were scattered on the soil surface. Seeded pots were covered with approximately 50 mL of the same planting soil and tamped. The pots were then placed in a greenhouse and watered thoroughly 2-3 times daily as needed. A balanced fertilizer solution was injected into the watering system to provide 218 ppm of nitrogen. Artificial lighting was used to supplement natural light to produce a 14 h photoperiod. Greenhouse temperatures were targeted for 28.8° C. in the day and 19.8° C. at night.
# When the D. nuda plants reached the 3-4-leaf growth stage (8-12 cm height), the pots were sorted into test units for herbicide application. Treatments were replicated three times. The herbicides were diluted in a measured amount of water and then mixed using a magnetic stir bar for 10 minutes before aliquots were taken to make individual treatment solutions. Diuron was in the form of the DuPont product KARMEX, which is a wettable granule formulation containing 80 weight % active ingredient. Hexazinone was in the form of the DuPont product VELPAR DF, which is a wettable granule formulation containing 75 weight % active ingredient. A mixture of hexazinone and diuron in 11:39 weight ratio was in the form of the DuPont product VELPAR-K (VELPAR-K4) 60 WG, which is a wettable granule formulation containing 13.2 weight % hexazinone and 46.8 weight % diuron active ingredients. A mixture of hexazinone and diuron in 1:8 weight ratio was in the form of the DuPont product VELPAR-K8 (marketed in Brazil as ADVANCE Herbicide), which is a wettable granule formulation containing 6.7 weight % hexazinone and 53.3 weight % diuron active ingredients. Topramezone was in the form of the AMVAC product IMPACT, which is a suspension concentrate formulation containing 29.7% active ingredient. These products were applied alone and in combinations. Application rates of diuron and hexazinone were […] and 210 g ai ha^−1, respectively. The application rates of the VELPAR-K4 mixture of hexazinone and diuron (132 g a.i. hexazinone+468 g a.i. diuron/kg of formulated product) and VELPAR-K8 mixture of hexazinone and diuron (67 g a.i. hexazinone+533 g a.i. diuron kg of formulated product) were 1200 and 1800 g total a.i. ha^−1, respectively. Application rates of topramezone were 6, 12, 18 and 24 g a.i./ha. (“a.i.” means active ingredient.) The pots were then sprayed through a T-Jet 8002E nozzle using a stationary belt sprayer calibrated to deliver 281 L/ha at 276 kPa. Treatments were replicated three times.
# The plants were returned to the greenhouse, and then control was visually evaluated relative to the control plants at 7 days after treatment (DAT). A numerical percent rating system was used to describe the response observed from each treatment on a scale of 0 to 100%, in which 0% indicates no response and 100% indicates plant death or near death. The reported results are the mean averages of the three replicates.
# Colby's Equation was used to determine the herbicidal effects expected from the mixtures. Colby's Equation (Colby, S. R. “Calculating Synergistic and Antagonistic Responses of Herbicide Combinations,” Weeds, 15(1), pp 20-22 (1967)) calculates the expected additive effect of herbicidal mixtures, and for two active ingredients, or a pair of active ingredients (e.g., diuron+hexazinone) combined with an additional active ingredient (e.g., topramezone), is of the form: […]
smiles,measurement,setting,value
"CN(C)C(=O)Nc1ccc(Cl)c(Cl)c1 [Diuron, N′-(3,4-dichlorophenyl)-N,N-dimethylurea]",% Control Observed,diuron 1800 g a.i./ha,20%
CN(C)c1nc(=O)n(C2CCCCC2)c(=O)n1C [Hexazinone],% Control Observed,hexazinone 210 g a.i./ha,12%
Cc1c(C(=O)c2cnn(C)c2O)ccc(S(C)(=O)=O)c1C1=NOCC1 [Topramezone],% Control Observed,"topramezone 6 g a.i./ha, 3-4-leaf stage, mean of 3 replicates",27%
same,% Control Observed,topramezone 12 g a.i./ha,28%
same,% Control Observed,topramezone 18 g a.i./ha,33%
same,% Control Observed,topramezone 24 g a.i./ha,40%
